Values of other authors in patent US20250367260A1, “TIRZEPATIDE COMPOSITIONS AND PREPARATION METHOD” (Galenicum Health S.L.U., priority 2024, published 2025).

## O=S(=O)(O)CC(O)CN(CCO)CCO (stereo not drawn) [DIPSO, 3-(N,N-Bis[2-hydroxyethyl]amino)-2-hydroxypropanesulfonic acid]
  pKa: ≈ 7.6

## O=S(=O)(O)CCN1CCN(CCO)CC1 [HEPES, 4-(2-hydroxyethyl)-1-piperazineethanesulfonic acid]
  pKa: ≈ 7.5

## O=S(=O)(O)CCCN1CCN(CCO)CC1 [HEPPS, 4-(2-Hydroxyethyl)-1-piperazinepropanesulfonic acid]
  pKa: ≈ 8.1

## O=S(=O)(O)CC(O)CNC(CO)(CO)CO (stereo not drawn) [TAPSO, 3-[N-Tris(hydroxymethyl)methylamino]-2-hydroxypropanesulfonic acid]
  pKa: ≈ 7.6

## O=S(=O)(O)CCNC(CO)(CO)CO [TES, N-[Tris(hydroxymethyl)methyl]-2-aminoethanesulfonic acid]
  pKa: ≈ 7.4

## O=C(O)CNC(CO)(CO)CO [Tricine, N-tris(hydroxymethyl)methylglycine]
  pKa: ≈ 8.2
